Laboratory results from patent publication US5430033A, “Piperazine derivatives” (John Wyeth & Brother Ltd., priority 1993, dated 1995).

How the values were obtained:
[1] = molecular target: T1, 5-HT1A receptor (Rattus norvegicus, UniProt P19327); assay: 5-HT1A receptor binding activity in rat hippocampal membrane homogenate; details: method of Alexander and Wood
T1 construct: rat hippocampal membrane homogenate; from tissue; host or cells: rat hippocampus, membrane homogenate
T1 sequence (P19327 1-422): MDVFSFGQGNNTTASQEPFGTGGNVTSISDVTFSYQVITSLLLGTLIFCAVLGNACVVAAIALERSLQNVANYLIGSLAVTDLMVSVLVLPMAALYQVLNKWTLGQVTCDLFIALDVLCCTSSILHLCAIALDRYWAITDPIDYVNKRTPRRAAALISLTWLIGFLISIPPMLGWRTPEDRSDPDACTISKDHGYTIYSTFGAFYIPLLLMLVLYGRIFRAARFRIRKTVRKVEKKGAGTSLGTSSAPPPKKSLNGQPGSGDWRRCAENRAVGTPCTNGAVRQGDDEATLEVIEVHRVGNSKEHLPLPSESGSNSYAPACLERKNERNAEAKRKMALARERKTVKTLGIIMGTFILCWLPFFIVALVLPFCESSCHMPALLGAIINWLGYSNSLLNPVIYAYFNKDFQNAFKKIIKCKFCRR
Procedure: The compounds of the invention are tested for 5-HT1A receptor binding activity in rat hippocampal membrane homogenate by the method of B S Alexander and M D Wood, J Pharm Pharmacol, 1988, 40, 888-891.

[2] = molecular target: T2, 5-HT1A receptor (Cavia porcellus, UniProt A0A286Y074); assay: 5-HT1A receptor antagonism: antagonism of 5-carboxamidotryptamine in the guinea-pig ileum in vitro; type: cell-based
T2 construct: guinea-pig ileum in vitro; from tissue; host or cells: guinea-pig ileum
T2 sequence (A0A286Y074 1-421): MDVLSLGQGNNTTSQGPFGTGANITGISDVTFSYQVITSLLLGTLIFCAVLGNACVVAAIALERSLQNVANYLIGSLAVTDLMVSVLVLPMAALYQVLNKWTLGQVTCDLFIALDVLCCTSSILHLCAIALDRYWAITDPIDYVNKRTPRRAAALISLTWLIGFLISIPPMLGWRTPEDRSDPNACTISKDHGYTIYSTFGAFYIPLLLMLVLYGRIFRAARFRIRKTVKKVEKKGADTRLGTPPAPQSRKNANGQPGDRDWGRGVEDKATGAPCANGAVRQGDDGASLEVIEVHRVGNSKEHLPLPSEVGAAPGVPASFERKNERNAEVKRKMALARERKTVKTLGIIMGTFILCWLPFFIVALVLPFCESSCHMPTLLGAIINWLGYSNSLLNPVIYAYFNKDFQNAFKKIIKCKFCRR
Procedure: The compounds are tested for 5-HT1A receptor antagonism activity in a test involving the antagonism of 5-carboxamidotryptamine in the guinea-pig ileum in vitro (based upon the procedure of Fozard et al, Br J Pharmac, 1985, 86, 601P).

- IC50 [1]: 2 nM
- pA2, 5-HT1A receptor antagonism [2]: 8.1
SMILES: COc1ccccc1N1CCN(CCc2ccccc2-c2ccccc2)CC1 [Example 3, 1-(2-(2-biphenyl)ethyl)-4-(2-methoxyphenyl)piperazine]
